According to patent US11564947B2, “Methods and compositions for cellular immunotherapy” (eFFECTOR Therapeutics, Inc., priority 2017, dated 2023):

How the values were obtained:
CD8+ T cells [1] = experiment: T cell memory formation, mixed lymphocyte reaction (MLR) assay, CD8+ cells; format: cell-based, mouse
Description: (§1) Spleens were isolated from OT-I and processed into a single cell suspension. Red blood cells (RBCs) were lysed using RBC lysis solution. Splenocytes (2×10^6 cells/ml) were cultured in complete media (10% FBS in DMEM) and stimulated with 5 μg/ml OVA MHC class I epitope peptide (SIINFEKL, SEQ ID NO:1) in the absence or presence of 0.01 μM, 0.1 μM, 1.0 μM, 3.0 μM, or 10 μM of MNK-specific inhibitor, Compound 107, for 48 hrs. For the mixed lymphocyte reaction (MLR) assay, peritoneal macrophages were first isolated from BALB/c mice by peritoneal wash with chilled DMEM media. This lavage was plated in a 24 well plate for 2 h at 37° C. After 2 h, non-adherent cells were washed to remove non-macrophage populations. The adherent cells (primarily peritoneal macrophages) were cultured in complete media in the absence or presence of the indicated Compound 107 concentrations for 24 h. After 24 h, panned splenocytes (enriched in T cells) from C57BL/6 mice were added to the macrophage culture in the absence or presence of Compound 107 for an additional 4 days.
(§2) The cells were harvested from the MLR, washed and stained with Horizon™ FVS, anti-CD4, anti-CD8, anti-CD44 and anti-CD62L antibodies. The cells were analyzed by flow cytometry (Attune NXT, ThermoFisher) and FlowJo analysis software (FlowJo LLC, Ashland Oreg.). CD8+ and CD4+ cells populations were analyzed for expression of CD44 and CD62L. […]

CD8+ T cells [2] = experiment: T cell memory formation, OVA MHC class I epitope peptide (SIINFEKL) stimulation of OT-I splenocytes; format: cell-based, mouse; details: 5 μg/ml SIINFEKL peptide plus Compound 107 0.01-10 μM, 48 hrs, peptide alone 32%
Description: as §1, §2

E.G7-OVA tumors = experiment: In vivo tumor growth inhibition; parameters: species or system athymic nude mice
Description: E.G7-OVA tumor cells (2×10^6) were implanted subcutaneously into athymic nude mice. On day 7 post-implant, tumors were measured (˜192 mm^3) and tumor-bearing animals were randomized into 6 groups. T cells purified from OT-I mouse spleens were cultured for 48 h in vitro with DMSO/PBS control alone, 50 μg/ml SIINFEKL peptide (SEQ ID NO:1) alone, 1 μM Compound 107, or the combination of 50 μg/ml SIINFEKL (SEQ ID NO:1) and 1 μM Compound 107. The in vitro treated OT-I T cells were adoptively transferred into animals from the appropriate groups (2×10^6 cells/mouse) by tail vein injection. Animals were dosed in vivo with vehicle or 1 mg/kg Compound 107 and tumor size and body weight was monitored during the course of the study.

[3] = tested on: OT-I memory T cells (CD45.2+CD8+CD44+) in spleen; experiment: Long-term memory/recall response after adoptive transfer of OT-I T cells; format: in vivo, B6.SJL mice
Description: Spleens were isolated from OT-I mice and CD3^+ T cells were isolated using the MojoSort Mouse CD3 T Cell Isolation Kit (Biolegend, San Diego Calif.). OT-I T cells (2×10^6 cells) were adoptively transferred into B6.SJL mice through intravenous tail vein injection. Mice were dosed orally with vehicle or 1 mg/kg Compound 107 24 hrs later and vaccinated subcutaneously with SIINFEKL peptide (SEQ ID NO:1) (50 μg/mouse). Mice were dosed with vehicle or 1 mg/kg Compound 107 for an additional six days. On day 21 post-immunization, selected groups were boosted with an additional injection of SIINFEKL peptide (SEQ ID NO:1) (50 μg/mouse). On day 24, spleens were harvested from animals and processed into a single cell suspension for flow cytometry analysis. Cells were stained with BD Horizon Fixable Viability Stain and antibodies against CD45.2, CD8, and CD44. Cells were analyzed using an Attune NXT flow cytometer and data was processed using FlowJo 10.1 software.

CD4+ T cells = experiment: T cell memory formation, mixed lymphocyte reaction (MLR) assay, CD4+ cells; format: cell-based, mouse; details: MLR in presence of Compound 107
Description: as §1, §2

Structure (SMILES): Cc1cc(Nc2cc(N)ncn2)c(=O)n2c1C(=O)NC21CCCCC1.Cl [Compound 107]
- pool of TCM CD8+ T cells (CD8+ T cells [1]; MLR in presence of Compound 107, MLR alone 15%): 20-29%
- TEM pool of CD8+ T cells (CD8+ T cells [1]; MLR, 0.01-3 μM of Compound 107, MLR alone 16%): 8-11%
- distribution of CD8+ T cells in the TCM pool (CD44high CD62Lhigh) (CD8+ T cells [2]): 36-41%
- tumor growth inhibition (TGI) (E.G7-OVA tumors; OT-I cells pre-treated in vitro with SIINFEKL and Compound 107, animals also dosed in vivo with 1 mg/kg Compound 107, compared with the vehicle-dosed group (55%)): did not show any further increase in TGI
- tumor growth inhibition (TGI) (E.G7-OVA tumors; adoptive transfer of SIINFEKL-pre-treated OT-I cells, animals dosed 1 mg/kg Compound 107 daily, 8 days post-transfer): 45%
- tumor growth inhibition (TGI) (E.G7-OVA tumors; no adoptive transfer of OT-I T cells, 1 mg/kg Compound 107 daily vs vehicle, 8 days post-transfer): 16%
- tumor growth inhibition (TGI) (E.G7-OVA tumors; vehicle-dosed animals, OT-I cells pre-treated in vitro with SIINFEKL and 1 μM Compound 107, 8 days post-transfer): 55%
- percentage of OT-I memory T cells in spleen (% of total lymphocytes) ([3]; immunized and boosted with SIINFEKL, 1 mg/kg oral during immunization, day 24, vs vehicle-treated immunized/boosted group): significantly increased
- population of OT-I memory T cells in spleen (% of total lymphocytes) ([3]; un-immunized animals, 1 mg/kg oral, day 24): unaffected
- pool of TCM CD4+ T cells (CD4+ T cells; MLR alone 21%): 28-39%
- TEM CD4+ T cell pool (CD4+ T cells; MLR alone 25%): 16-23%
